Key:
Type in all cases: cell-based, human
[1] = test system: K562 cells; assay: Erythroid differentiation assay (glycophorin A, CD10, benzidine hemoglobin staining); conditions: for rescue of differentiation mediated by ME2 depletion: supplementation
Method: Erythroid differentiation assay: Induction of surface expression of the erythroid marker glycophorin A and CD10 was determined by indirect immunofluorescence and flow cytometry, as described previously by Hatzivassiliou et al., in Cancer Cell. 8: 311-321 (2005). In brief, K562 cells with or without ME2 knockdown were stained with a mouse FITC-conjugated anti-glycophorin A or CD10 antibody (Dako) at 1:100 dilution in medium plus 10% FCS for 30 min at 4° C. Control cells were stained with FITC-conjugated IgG. Cells expressing hemoglobin were determined by benzidine staining, as previously described by Park et al., in Cell Growth Differ. 12: 481-486 (2001). The benzidine dihydrochloride stock solution contained 0.2% w/v benzidine hydrochloride in 3% acetic acid. Cells (1×10^5) were washed twice in ice-cold PBS. The cell pellets were resuspended in ice-clod PBS. Before staining, 5 μl of 30% H2O2 was added to 1 ml of a stock solution of benzidine solution. The cell suspensions were mixed with the benzidine solution in a 1:1 ratio and counted in a hemocytometer after 30 min. Blue cells were considered to be positive for hemoglobin. The proportion of blue-stained cells was quantified under light microscopy. A total of 500 cells were counted for each sample in triplicate. Shown is the mean±SD of a representative experiment.

[2] = test system: K562 cells; assay: Cell death assessed by flow cytometry; conditions: 72 h
Method: A: Cells were treated with different concentrations of amino-oxyacetate and expression levels of the erythroid marker glycophorin A (GPA) on the surface of K562 cells were assessed using a mouse FITC-conjugated anti-human glycophorin A antibody. Each histogram is representative of three experiments. B: K562 cells with or without ME2 knockdown were incubated with different concentrations of AOA for 72 h. Cell death was assessed by flow cytometry. Top: pLKO; Bottom: shME2-3. […] C: Cells were treated with different concentrations of malate and expression levels of the erythroid marker glycophorin A on the surface of K562 cells were assessed using a mouse FITC-conjugated anti-human glycophorin A antibody. Each histogram is representative of three experiments.
K562 cells with or without ME2 knockdown were incubated with 0.1 mM AOA plus 2 mM α-KG for 48 h. Cell death was assessed by flow cytometry. A: pLKO K562 cells without any treatment. B: pLKO K562 cells treated with 0.1 mM AOA for 48 h. C: pLKO K562 cells treated with 0.1 mM AOA combined with 2 mM α-KG.

[3] = test system: K562 cells; assay: Proliferation assay (Coulter counter); conditions: for rescue of ME2 knockdown cell cycle phenotype (decreased proliferation): supplementation
Method: Proliferation assay: Control and ME2 deficient cell lines were plated in 6-well plate at a density of 1×10^5 cells/well and maintained at 37° C. in a 5% CO2 incubator. After 24, 72, 120 and 168 hours of initial plating, 0.5 ml cells were diluted into 10 ml of Hanks' buffer and counted by Coulter counter.

[4] = test system: phospho-ERK1/2, phospho-AKT, GATA-1, vimentin; assay: Western blot of signaling pathways, GATA-1 and vimentin in K562 cells; conditions: K562, 10 μM
Method: K562 cells with or without ME2 knockdown were lysed with RIPA lysis buffer (50 mM Tris-HCl, pH 8.0, 150 mM NaCl, 1% Triton X-100, 1 mM EGTA) containing 1 mM PMSF and a protease inhibitor cocktail and subjected to centrifugation at 15,000×g for […] at 4° C. to remove debris. After lysis, equal aliquots of protein lysate were resolved by Western blotting. Western blots were probed with anti-phospho-ERK1/2, anti-ERK1, anti-p-AKT308, anti-AKT472, anti-AKT1/2, anti-GATA-1, anti-vimentin, and anti-β-tubulin. A: Phospho-ERK1/2 activity in ME2 knockdown K562 cells. B: Phospho-AKT detection in ME2 knockdown K562 cells. C: 10 μM PI3K inhibitor, LY294002, inhibits p-AKT activity. D: LY294002 rescue of differentiation in ME2 knockdown K562 cells. E: The effect of LY294002 on the proliferation of K562 cells with (third to sixth bars in graph) or without ME2 (first to second bars in graph) knockdown. F: The expression difference of GATA-1 and vimentin in ME2 knockdown cells. Data are representative of three independent experiments. […] Membranes were washed in PBS plus 0.1% Tween 20 and probed with anti-rabbit or anti-mouse HRP-conjugated secondary antibody (both at 1:10,000 dilution), and proteins were detected using the ECL Plus chemiluminescence detection reagent (Amersham Biosciences).

[5] = test system: K562 cells; assay: Determination of cellular reactive oxygen species (CM-H2DCF-DA, MitoSOX); conditions: ME2 knockdown K562 cells, 5.0 mM
Method: Determination of cellular reactive oxygen species (ROS): Intracellular ROS production was measured by staining with CM-H2DCFDA. CM-H2DCFDA is a cell-permeant indicator for ROS that is nonfluorescent until removal of the acetate groups by intracellular esterases and oxidation occurs within the cell. The procedure for measuring ROS was carried out as described in Trachootham et al., in Cancer Cell. 10: 241-252 (2006), with minor modifications. Briefly, K562 cells transduced with shRNA lentiviral particles or control vector were selected with puromycin for 2 weeks, […], followed by flow cytometry using a FACSCalibur equipped with CellQuest Pro software. Superoxide radicals (O2^−) were measured separately using the MitoSOX™ reagent according to the manufacturer's protocol (Invitrogen). In brief, cells with or without ME2 knockdown were incubated with 5 μM MitoSOX™ reagent for 10 minutes at 37° C., then washed three times and observed under a fluorescence microscope using the Rhodamine filter and Axiovision software for capturing images (Zeiss, Germany).

## NOCC(=O)O [AOA, amino-oxyacetate]
[1]; K562, 0.2 to 0.8 mM in medium
  erythroid differentiation (glycophorin staining): could not induce erythroid differentiation
[2]; K562 with ME2 silenced (shME2-3)
  cell death: induced leukemia cell death (mainly apoptotic)
[2]; wild type K562 (pLKO)
  cell death: induced leukemia cell death (mainly necrotic)

## O=c1cc(N2CCOCC2)oc2c(-c3ccccc3)cccc12 [LY294002, 2-morpholin-4-yl-8-phenylchromen-4-one]
[3]; ME2 knockdown K562 cells
  rescue of proliferation inhibition: does not rescue proliferation inhibition in ME2 knockdown cells as effectively
[3]; ME2 knockdown vs parental K562 cells
  sensitivity of proliferation inhibition to LY294002: more sensitive
[1]; ME2 knockdown K562 cells, 10 μM
  differentiation mediated by ME2 silencing: rescues the differentiation
[4]
  p-AKT activity: significantly inhibit p-AKT activity

## CC(=O)N[C@@H](CS)C(=O)O [NAC, N-acetyl cysteine]
[1]; ME2 knockdown K562 cells, 5.0 mM
  differentiation induced by ME2 depletion: without affecting differentiation
[5]
  endogenous ROS: completely inhibited

## Nc1ccn([C@@H]2O[C@H](CO)[C@@H](O)[C@H]2O)c(=O)n1 [cytidine]
[3]; ME2 knockdown K562 cells
  rescue of ME2 knockdown cell cycle phenotype (decreased proliferation): nor were we able to rescue
[1]; ME2 knockdown K562 cells
  rescue of differentiation mediated by ME2 depletion: could not rescue the differentiation

## O=C(O)CC(O)C(=O)O (centres unmarked) [malate]
[1]; wild type K562, 0.1 to 10 mM in medium
  erythroid differentiation: could not induce erythroid differentiation

## O=c1ccn([C@@H]2O[C@H](CO)[C@@H](O)[C@H]2O)c(=O)[nH]1 [uridine]
[3]; ME2 knockdown K562 cells
  rescue of ME2 knockdown cell cycle phenotype (decreased proliferation): nor were we able to rescue
[1]; ME2 knockdown K562 cells
  rescue of differentiation mediated by ME2 depletion: could not rescue the differentiation
